The values that follow come from patent US10519134B2, “Pyrazole compounds and methods of making and using same” (Lundbeck La Jolla Research Center, Inc., priority 2015, dated 2019).

Common to all, as to assay type: biochemical
For assay [1], the target named is T1, MAGL (Mus musculus, UniProt O35678).
T1 construct: Proteomes (mouse brain membrane fraction or cell lysates); from tissue; host or cells: mouse brain membrane fraction (or cell lysates)
T1 sequence (O35678 1-303): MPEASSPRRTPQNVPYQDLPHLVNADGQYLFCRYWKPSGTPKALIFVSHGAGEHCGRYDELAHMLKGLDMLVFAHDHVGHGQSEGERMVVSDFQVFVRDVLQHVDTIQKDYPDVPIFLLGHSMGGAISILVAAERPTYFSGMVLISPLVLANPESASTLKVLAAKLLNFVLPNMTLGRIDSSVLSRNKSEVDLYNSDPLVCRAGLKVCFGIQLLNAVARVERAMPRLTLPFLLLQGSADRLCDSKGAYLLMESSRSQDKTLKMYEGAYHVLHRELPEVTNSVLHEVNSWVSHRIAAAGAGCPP
In words: In vitro competitive activity-based protein profiling (mouse), MAGL gel band. Conditions: for inhibition at 1 µM: read-out: MAGL % inh. 1 μM. The method in brief:
(§1)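 Mouse brain membrane proteome or cell lysate (1.0 mg/mL total protein) was preincubated with varying inhibitor concentrations for 30 min at 37 °C, then labelled for 30 min at 37 °C with FP-Rh or HT-01 (50 μM stock in DMSO). Activity was read as fluorescent band intensity after SDS-PAGE.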

For another assay, the target named is T2, FAAH (Mus musculus, UniProt O08914).
T2 construct: Proteomes (mouse brain membrane fraction or cell lysates); from tissue; host or cells: mouse brain membrane fraction (or cell lysates)
T2 sequence (O08914 1-579): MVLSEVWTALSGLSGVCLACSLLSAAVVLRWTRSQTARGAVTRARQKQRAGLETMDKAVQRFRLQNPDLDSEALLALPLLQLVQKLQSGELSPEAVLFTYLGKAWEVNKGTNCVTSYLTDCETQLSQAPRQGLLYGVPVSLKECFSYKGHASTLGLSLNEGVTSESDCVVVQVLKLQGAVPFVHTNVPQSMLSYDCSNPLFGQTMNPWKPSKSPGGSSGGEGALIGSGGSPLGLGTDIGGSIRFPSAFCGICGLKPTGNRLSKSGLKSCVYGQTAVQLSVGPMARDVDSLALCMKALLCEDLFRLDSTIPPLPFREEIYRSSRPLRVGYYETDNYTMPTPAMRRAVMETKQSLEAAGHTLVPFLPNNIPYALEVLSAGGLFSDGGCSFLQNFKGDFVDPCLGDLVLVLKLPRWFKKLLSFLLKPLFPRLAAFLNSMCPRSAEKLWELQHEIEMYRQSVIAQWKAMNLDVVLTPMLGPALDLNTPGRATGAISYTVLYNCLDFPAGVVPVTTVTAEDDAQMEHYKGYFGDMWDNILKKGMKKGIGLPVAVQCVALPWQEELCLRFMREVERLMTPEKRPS
In words: In vitro competitive activity-based protein profiling (mouse), FAAH gel band. Conditions: for inhibition at 1 µM: read-out: FAAH % inh. 1 μM. A digest of the protocol:
as §1

Assay [2] addresses T3, MAGL (Homo sapiens, UniProt Q99685).
T3 construct: Proteomes (human prefrontal cortex or cell membrane fractions); from tissue; host or cells: human prefrontal cortex (or cell membrane fractions)
T3 sequence (Q99685 1-303): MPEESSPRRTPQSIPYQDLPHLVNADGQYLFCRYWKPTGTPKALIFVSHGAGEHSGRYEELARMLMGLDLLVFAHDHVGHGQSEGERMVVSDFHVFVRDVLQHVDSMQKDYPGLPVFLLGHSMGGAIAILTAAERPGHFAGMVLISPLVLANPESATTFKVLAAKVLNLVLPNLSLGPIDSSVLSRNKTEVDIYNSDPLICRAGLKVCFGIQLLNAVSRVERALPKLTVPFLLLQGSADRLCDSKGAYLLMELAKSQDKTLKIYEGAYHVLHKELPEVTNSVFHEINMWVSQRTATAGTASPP
Description: In vitro competitive activity-based protein profiling (human), MAGL gel band. Here is the method:
In Vitro Competitive Activity-Based Protein Profiling (Human).
Proteomes (human prefrontal cortex or cell membrane fractions) (50 μL, 1.0-2.0 mg/mL total protein concentration) were preincubated with varying concentrations of inhibitors at 37° C. After 30 min, FP-Rh or JW912 (1.0 μL, 50 μM in DMSO) was added and the mixture was incubated for another 30 min at room temperature. Reactions were quenched with SDS loading buffer (15 μL—4×) and run on SDS-PAGE. Following gel imaging, serine hydrolase activity was determined by measuring fluorescent intensity of gel bands corresponding to MAGL using ImageJ 1.49k software.

For `CS(=O)(=O)Nc1ccn(C(=O)N2CCN(Cc3ccc(C(F)(F)F)cc3-c3ccc(C(F)(F)F)nc3)CC2)n1` [Example 212, N-(1-(4-(4-(trifluoromethyl)-2-(6-(trifluoromethyl)pyridin-3-yl)benzyl)piperazine-1-carbonyl)-1H-pyrazol-3-yl) methanesulfonamide], the inhibition at 1 µM at MAGL [1] was at least 75%; on FAAH, 0 to 25%. The IC50 (in general, the concentration at which inhibition is half-maximal) on MAGL [2] fell in the range of 100 to 1000 nM.

In the case of `CS(=O)(=O)Nc1ccn(C(=O)N2CCN(Cc3ccc(C(F)(F)F)cc3-c3ccn(CC(=O)O)n3)CC2)n1` [Example 213, 2-(3-(2-((4-(3-(methylsulfonamido)-1H-pyrazole-1-carbonyl)piperazin-1-yl)methyl)-5-(trifluoromethyl)phenyl)-1H-pyrazol-1-yl)acetic acid], the inhibition at 1 µM at MAGL [1] was at least 75%; on FAAH, 0 to 25%. Further, at MAGL [2], the IC50 is 100 to 1000 nM.

For `CC(=O)N1CC2CN(c3cc(CN4CCN(C(=O)n5ccc(NS(C)(=O)=O)n5)CC4)ccc3Cl)CC2C1` (centres unmarked) [Example 215, N-(1-(4-(3-(5-acetylhexahydro-pyrrolo[3,4-c]pyrrol-2(1H)-yl)-4-chlorobenzyl)piperazine-1-carbonyl)-1H-pyrazol-3-yl) methanesulfonamide], the inhibition at 1 µM on MAGL [1] is at least 75%; at FAAH it was 0 to 25%. The compound further returned an IC50 on MAGL [2] of 100 to 1000 nM.

Consider `CC(=O)N1CCC2(CC1)CCN(c1cc(CN3CCN(C(=O)n4ccc(NS(C)(=O)=O)n4)CC3)ccc1Cl)C2` [Example 216, N-(1-(4-(3-(8-acetyl-2,8-diazaspiro[4.5]decan-2-yl)-4-chlorobenzyl)piperazine-1-carbonyl)-1H-pyrazol-3-yl) methanesulfonamide], for which the results for the inhibition at 1 µM on MAGL [1] and at FAAH were at least 75% and 0 to 25%, respectively. The compound further gave an IC50 on MAGL [2] of 100 to 1000 nM.

For `CS(=O)(=O)Nc1ccn(C(=O)N2CCN(Cc3ccc(Cl)cc3N3CCC(F)CC3)CC2)n1` [Example 227, N-(1-(4-(4-chloro-2-(4-fluoropiperidin-1-yl)benzyl)piperazine-1-carbonyl)-1H-pyrazol-3-yl) methanesulfonamide], the results for the inhibition at 1 µM on MAGL [1] and on FAAH were at least 75% and 0 to 25%, respectively. Besides, at MAGL [2], the IC50 is at most 100 nM.

For the compound `CC(=O)N1CC2(CCN(c3cc(C(F)(F)F)ccc3CN3CCN(C(=O)n4ccc(NS(C)(=O)=O)n4)CC3)CC2)C1` [Example 228, N-(1-(4-(2-(2-acetyl-2,7-diazaspiro[3.5]nonan-7-yl)-4-(trifluoromethyl)benzyl)piperazine-1-carbonyl)-1H-pyrazol-3-yl) methanesulfonamide], the inhibition at 1 µM at MAGL [1] was at least 75%; at FAAH, 0 to 25%. On MAGL [2], the IC50 is at most 100 nM.

`CS(=O)(=O)Nc1ccn(C(=O)N2CCN(Cc3ccc(Cl)cc3N3CCC4(CC3)CN(S(C)(=O)=O)C4)CC2)n1` [Example 230, N-(1-(4-(4-chloro-2-(2-(methylsulfonyl)-2,7-diazaspiro[3.5]nonan-7-yl)benzyl)piperazine-1-carbonyl)-1H pyrazol-3-yl) methanesulfonamide]: the inhibition at 1 µM was at least 75% on MAGL [1] and 0 to 25% at FAAH. This compound also showed an IC50 at MAGL [2] of at most 100 nM.

Consider `CN(C)C(=O)C1CCN(c2cc(C(F)(F)F)ccc2CN2CCN(C(=O)n3ccc(NS(C)(=O)=O)n3)CC2)CC1` [Example 231, N,N-dimethyl-1-(2-((4-(3-(methylsulfonamido)-1H-pyrazole-1-carbonyl)piperazin-1-yl)methyl)-5-(trifluoromethyl)phenyl)piperidine-4-carboxamide], for which the inhibition at 1 µM at MAGL [1] was at least 75%; on FAAH it was 0 to 25%. In addition, the IC50 at MAGL [2] was at most 100 nM.

`CS(=O)(=O)Nc1ccn(C(=O)N2CCN(Cc3ccc(C(F)(F)F)cc3N3CCC4(CC3)CCN(S(C)(=O)=O)C4)CC2)n1` [Example 234, N-(1-(4-(2-(2-(methylsulfonyl)-2,8-diazaspiro[4.5]decan-8-yl)-4-(trifluoromethyl)benzyl)piperazine-1-carbonyl)-1H-pyrazol-3-yl) methanesulfonamide]: the inhibition at 1 µM at MAGL [1] is at least 75%; on FAAH it was 0 to 25%. On MAGL [2], this compound registered an IC50 of at most 100 nM.

Turning to `CS(=O)(=O)Nc1ccn(C(=O)N2CCN(Cc3ccc(C(F)(F)F)cc3N3CCC4(CCN(S(C)(=O)=O)CC4)C3)CC2)n1` [Example 235, N-(1-(4-(2-(8-(methylsulfonyl)-2,8-diazaspiro[4.5]decan-2-yl)-4-(trifluoromethyl)benzyl)piperazine-1-carbonyl)-1H-pyrazol-3-yl) methanesulfonamide], the inhibition at 1 µM at MAGL [1] was at least 75%; on FAAH it was 0 to 25%. On MAGL [2], the IC50 was at most 100 nM.

Take `CS(=O)(=O)Nc1ccn(C(=O)N2CCN(Cc3ccc(Cl)c(N4CCCCC4)c3)CC2)n1` [Example 236, N-(1-(4-(4-chloro-3-(piperidin-1-yl)benzyl)piperazine-1-carbonyl)-1H-pyrazol-3-yl) methanesulfonamide]: the figures for the inhibition at 1 µM at MAGL [1] and on FAAH were at least 75% and 0 to 25%, respectively. Moreover, at MAGL [2], the IC50 is at most 100 nM.

For `CC(C)n1cc(-c2cc(CN3CCN(C(=O)n4ccc(NS(C)(=O)=O)n4)CC3)ccc2Cl)cn1` [Example 237, N-(1-(4-(4-chloro-3-(1-isopropyl-1H-pyrazol-4-yl)benzyl)piperazine-1-carbonyl)-1H-pyrazol-3-yl) methanesulfonamide], the inhibition at 1 µM was at least 75% at MAGL [1] and 0 to 25% at FAAH. Further, the IC50 at MAGL [2] was at most 100 nM.

With `CS(=O)(=O)Nc1ccn(C(=O)N2CCN(Cc3ccc(C(F)(F)F)cc3N3CCC(c4nnn[nH]4)CC3)CC2)n1` [Example 240, N-(1-(4-(2-(4-(1H-tetrazol-5-yl)piperidin-1-yl)-4-(trifluoromethyl)benzyl)piperazine-1-carbonyl)-1H-pyrazol-3-yl) methanesulfonamide], the inhibition at 1 µM is at least 75% on MAGL [1] and 0 to 25% at FAAH. In addition, the IC50 on MAGL [2] is 100 to 1000 nM.

On to `CS(=O)(=O)Nc1ccn(C(=O)N2CCN(Cc3ccc(C(F)(F)F)cc3N3CCC(C(N)=O)CC3)CC2)n1` [Example 250, 1-(2-((4-(3-(methylsulfonamido)-1H-pyrazole-1-carbonyl)piperazin-1-yl)methyl)-5-(trifluoromethyl)phenyl)piperidine-4-carboxamide], for which the inhibition at 1 µM at MAGL [1] is at least 75%; on FAAH, 0 to 25%. This compound also showed an IC50 at MAGL [2] of at most 100 nM.

For `Cc1cc(CN2CCCC23CCN(C(=O)n2ccc(NC(=O)C(F)F)n2)CC3)ccc1Cl` [Example 257, N-(1-(1-(4-chloro-3-methylbenzyl)-1,8-diazaspiro[4.5]decane-8-carbonyl)-1H-pyrazol-3-yl)-2,2-difluoroacetamide], the inhibition at 1 µM at MAGL [1] was at least 75%; on FAAH it was 0 to 25%. This compound also gave an IC50 at MAGL [2] of at most 100 nM.

In the case of `CC(=O)Nc1ccn(C(=O)N2CCN(Cc3ccc(C(F)(F)F)cc3N3CCC(C(C)(C)O)CC3)CC2)n1` [Example 266, N-(1-(4-(2-(4-(2-hydroxypropan-2-yl)piperidin-1-yl)-4-(trifluoromethyl)benzyl)piperazine-1-carbonyl)-1H-pyrazol-3-yl)acetamide], the IC50 is at most 100 nM on MAGL [1] (mouse), 1 to 10 µM at FAAH (mouse) and at most 100 nM at MAGL [2]. Further, the figures for the inhibition at 1 µM at MAGL [1] and on FAAH were at least 75% and 0 to 25%, respectively.
